In one data set the test system is TNF-α production. Kind of data set: Measurement of TNF-α production inhibitory activity. In kind it is cell-based. The note with it: PBMC; concentration that inhibits TNF-α production by 50%; LPS (1 μg/ml)-stimulated human peripheral blood mononuclear cells, 24 hours, ELISA. The procedure:
Measurement of TNF-α Production Inhibitory Activity
The following tests were performed to evaluate TNF-α production inhibitory activity.
(1) Separation of Human Peripheral Blood Mononuclear Cells
A peripheral blood sample was obtained from a healthy adult donor who had signed a written informed consent. Thirty milliliters of the blood sample, which had been heparinized, was dispensed into a Leucosep tube (Greiner) containing 16 ml of a lymphocyte separation solution (Nakarai Chemical, Ltd.) under the filter barrier, and centrifuged at 1000×g for 15 minutes.
The intermediate layer corresponding to a mononuclear cell fraction was collected in a 50 ml centrifuge tube, and washed twice with a RPMI 1640 medium. After trypan blue staining, the viable count was determined and adjusted to 2×10^6 cells/ml with RPMI 1640 medium.
(2) Induction of TNF-α Production
E. coli (Serotype 055:B5)-derived LPS, which had been dissolved in a RPMI 1640 medium to a concentration of 5 mg/ml, sterilized by filtration and stored in a freezer, was melted and diluted with a RPMI 1640 medium to 10 μg/ml. The test substances were dissolved in DMSO to obtain solutions with a concentration of […] the final use concentration. One microliter of each of the graded concentration test substance solutions, 149 μl of RPMI 1640 medium, 50 μl of LPS solution (final concentration: 1 μg/ml), 50 μl of fetal bovine serum, and […] of the peripheral blood mononuclear cell suspension were dispensed to each well of a 48-well plate and incubated at 37° C. for 24 hours.
(3) Measurement of TNF-α Concentration
After completion of the incubation, the culture supernatant was collected from each well, and the TNF-α concentration in the supernatant was measured by ELISA method (Human TNF-α Eli-pair, Diaclone).
In general terms: In an ELISA, binding on a coated surface is turned into a signal by an enzyme label.

The target of a further data set is T1, human PDE4D (HPDE4D) (Homo sapiens, UniProt Q08499).
T1 construct: made in house; host or cells: COS-7 cells (African green monkey kidney), transient transfection; soluble supernatant of the homogenate
T1 sequence (Q08499 whole entry): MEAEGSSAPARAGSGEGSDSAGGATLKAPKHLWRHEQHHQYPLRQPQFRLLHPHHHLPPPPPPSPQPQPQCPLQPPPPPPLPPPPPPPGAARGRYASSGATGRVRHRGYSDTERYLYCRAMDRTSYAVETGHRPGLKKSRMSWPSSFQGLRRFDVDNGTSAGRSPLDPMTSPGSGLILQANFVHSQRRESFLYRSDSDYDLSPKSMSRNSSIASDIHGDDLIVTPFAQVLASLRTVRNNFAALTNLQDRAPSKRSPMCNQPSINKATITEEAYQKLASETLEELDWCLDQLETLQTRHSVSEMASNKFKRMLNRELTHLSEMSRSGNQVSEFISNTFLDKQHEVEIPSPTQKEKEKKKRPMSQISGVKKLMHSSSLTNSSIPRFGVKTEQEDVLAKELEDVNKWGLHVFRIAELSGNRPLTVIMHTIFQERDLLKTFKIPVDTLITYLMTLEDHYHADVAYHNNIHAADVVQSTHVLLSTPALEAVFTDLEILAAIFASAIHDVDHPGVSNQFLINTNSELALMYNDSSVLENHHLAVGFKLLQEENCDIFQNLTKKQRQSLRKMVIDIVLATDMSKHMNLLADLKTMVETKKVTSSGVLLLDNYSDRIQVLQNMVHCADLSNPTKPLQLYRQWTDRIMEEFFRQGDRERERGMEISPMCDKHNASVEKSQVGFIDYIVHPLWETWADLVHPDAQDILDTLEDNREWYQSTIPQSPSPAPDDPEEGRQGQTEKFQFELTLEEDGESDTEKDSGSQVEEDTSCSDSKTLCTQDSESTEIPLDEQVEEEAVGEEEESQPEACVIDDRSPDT
The data set can be described thus: Confirmatory test for phosphodiesterase (PDE) 4 inhibitory activity. The data set is classed as biochemical. To be noted: concentration that inhibits the PDE4 activity by 50%; PDE4D enzyme solution from transfected COS-7 cells, [3H]cAMP substrate. The text has this:
Confirmatory Test for Phosphodiesterase (PDE) 4 Inhibitory Activity
(1) Mass Preparation of Plasmids
Plasmids containing genes coding for human PDE4D (HPDE4D) (stored in Otsuka America Pharmaceutical, Inc., Maryland Research Laboratories) were transformed into Escherichia coli, and mass cultured. The plasmids were then purified using EndoFree™ Plasmid Mix Kit (Qiagen).
(2) Mass expression and purification of PDE4D
African green monkey kidney-derived COS-7 cells (RCB 0539) were subcultured in a DMEM medium containing 100 units/ml penicillin, […] streptomycin and 10% FBS. The plasmids prepared in (1) were transfected into the cells, using LipofectAMINE™ 2000 Reagent (hereinafter referred to as “LF2000”, a product of Invitroge), according to the attached protocol. For comparison, pcDNA3.1 was transfected as a control vector. The COS-7 cells were inoculated into 10 cm diameter petri dishes on the day before transfection, so that the cells reached 90% confluence on the day of transfection. Twelve micrograms of the plasmids diluted with 0.9 ml of OPTI-MEM I (Invitrogen) (a plasmid solution; Solution A) and 30 μl of LF2000 diluted with 0.9 ml of OPTI-MEM I (a LF2000 solution; Solution B) were prepared per petri dish, and allowed to stand at room temperature for 5 minutes. Solutions A and B were then mixed together and allowed to stand at room temperature for 20 minutes. The mixture was added to the cultured cells, and incubation was performed overnight at 37° C. in an atmosphere of 5% CO2. The culture medium was changed on the following day, incubation was continued overnight, and the cells were collected by the following procedure. First, the cells were washed once with PBS (Sigma), and 2 ml of Trypsin-EDTA solution (Sigma) was added per petri dish, spread over the dish and removed. The cells were then allowed to stand at 37° C. for 2 to 3 minutes, separated from the petri dish and suspended in a medium. The suspension was placed in a centrifuge tube, and centrifuged at 200×g and 4° C. for 5 minutes. The supernatant was then removed. The cells were further washed with PBS and stored at −80° C. A KHEM buffer (50 mM Hepes, 50 mM KCl, 10 mM EGTA, 1.92 mM MgCl2, pH 7.2) containing 1 mM DTT, 40 μg/ml PMST, 156 μg/ml benzamidine, 1 μg/ml apotinin, 1 μg/ml leupeptin, 1 μg/ml pepstatin A, and 1 μg/ml antipain was added to the cells that had been stored, and the resulting mixture was placed in a glass homogenizer and homogenized on ice. The cell suspension was centrifuged at 100×g and 4° C. for 5 minutes, and the supernatant was further centrifuged at 100,000×g for 1 hour. Thereafter, the supernatant was dispensed into new tubes as a PDE4D enzyme solution, and stored in an ultra-low-temperature freezer. The protein concentration of the PDE4D enzyme solution was then measured.
(3) Determination of Dilution Factor of PDE4D Enzyme Solution
The PDE4D enzyme solution prepared in (2) was diluted 10-, 25-, 50-, 100-, 200-, 400- and 800-fold with 20 mM Tris-HCl (pH 7.4), and the PDE4D activities of the diluted enzyme solutions were measured by the method described in (4) to determine the optimum dilution factor to obtain a PDE4D enzyme solution in which degraded cAMP constituted 10 to 30% of the total cAMP.
(4) Measurement of PDE4D Inhibitory Activity
The necessary amount of each test substance was weighed out and dissolved in 100% DMSO to a concentration of 10 mM. The resulting solutions were stored in a freezer as test substance stock solutions. Before the inhibitory activity measurement, the stock solutions were melted, diluted 2-fold with 100% DMSO to a concentration of 5 mM, and further diluted with 100% DMSO to obtain test substance solutions with 10 graded concentrations. Each test substance solution was added to a 1.2 ml tube containing 23 μl of 20 mM Tris-HCl (pH 7.4). […]

Structures are written as SMILES. Structures can show the parent of a compound that is named as a salt.

Experimental findings from patent US8450352B2, “Thiazole compounds and their use for inhibiting phosphodiesterase 4, TNF-α, and IL-4” (Otsuka Pharmaceutical Co., Ltd., priority 2004, dated 2013) are described below.

As a reminder, the melting point is the temperature of the solid-liquid transition. The IC50 is the concentration needed to halve the response being measured. High values mean lower potency, low ones higher potency.

`CCOc1ccc(-c2nc(CCC(=O)c3ccccc3OC)cs2)cc1OCC` [Example 89, 3-[2-(3,4-diethoxyphenyl)thiazole-4-yl]-1-(2-methoxyphenyl)-1-propanone] gave a melting point of 68.9 to 69.3 °C. Also, in the data set on TNF-α production, the IC50 amounted to 7 nM.
In turn, `CCOc1ccc(-c2nc(CCC(=O)c3ccccc3C#N)cs2)cc1OCC` [Example 239, 2-{3-[2-(3,4-diethoxyphenyl)thiazole-4-yl]propionyl}benzonitrile] came in with a melting point of 113.7 to 114.8 °C. This compound displayed an IC50 at human PDE4D (HPDE4D) of 9.7 nM.
For `CCOc1ccc(-c2nc(CCC(=O)c3ccccc3C)cs2)cc1OCC` [Example 107] the same measures were 107.1 to 107.4 °C and 5.8 nM.
With `CCOc1ccc(-c2nc(CCCc3ncccc3OC)cs2)cc1OCC.Cl.Cl` [Example 238, 2-{3-[2-(3,4-diethoxyphenyl)thiazole-4-yl]propyl}-3-methoxypyridine dihydrochloride], the melting point is 169.4 to 171.2 °C. This compound returned an IC50 at human PDE4D (HPDE4D) of 7.2 nM.
The matching figures for `CCOc1ccc(-c2nc(CCC(=O)c3ccccc3OCC)cs2)cc1OCC` [Example 100]: 84.3 to 86.1 °C and 2.3 nM.
Consider `CCOc1ccc(-c2nc(CCC(=O)c3nccs3)cs2)cc1OCC` [Example 90, 3-[2-(3,4-diethoxyphenyl)thiazole-4-yl]-1-thiazole-2-yl-1-propanone], for which the melting point is 93.1 to 94.4 °C.
On the same count and under the same terms, next, `CCOc1ccc(-c2nc(/C=C/C(=O)c3ccc(Cl)c(Cl)c3)cs2)cc1OCC` [Example 29]: 138 to 139 °C; `CCOc1ccc(-c2nc(/C=C/C(=O)c3ccccc3C(=O)OC)cs2)cc1OCC` [Example 33]: 132 to 133 °C.
Same read-out and setting: next, `CCOc1ccc(-c2nc(/C=C/C(=O)c3ccc(OC)c(OC)c3)cs2)cc1OCC` [Example 13]: 152 to 153 °C.
With `CCOc1ccc(-c2nc(CCC(=O)c3ccccc3)cs2)cc1OCC` [Example 91], the melting point was 113.3 to 113.6 °C. The midpoint of inhibition with TNF-α production, the IC50, lay at 543 nM.
Take `CCOc1ccc(-c2nc(/C=C/C(=O)c3ccc([N+](=O)[O-])cc3)cs2)cc1OCC` [Example 32]: the melting point was 125 to 127 °C.
At human PDE4D (HPDE4D), `CCOc1ccc(-c2nc(CCC(=O)c3ncccc3OCC)cs2)cc1OCC` [Example 87, 3-[2-(3,4-diethoxyphenyl)thiazole-4-yl]-1-(3-ethoxypyridine-2-yl)-1-propanone] registered an IC50 of 0.2 nM. This lies in the sub-nanomolar range.
Consider `CCOc1ccc(-c2nc(/C=C/C(=O)c3ccc(NC(C)=O)cc3)cs2)cc1OCC` [Example 28], for which the melting point is 199.5 to 201.5 °C.
`CCOc1ccc(-c2nc(/C=C/C(=O)c3ccc(N)cc3)cs2)cc1OCC` [Example 30] displayed a melting point of 148 to 150 °C.
`CCOc1ccc(-c2nc(/C=C/C(=O)c3cc(Cl)c(N)c(Cl)c3)cs2)cc1OCC` (as salt: hydrochloride) [Example 12] came in with a melting point of 165 to 168 °C.
The compound `CCOc1ccc(-c2nc(/C=C/C(=O)c3c(O)cc(O)cc3O)cs2)cc1OCC` [Example 9] returned a melting point of 188 to 189 °C.
On the same count and under the same terms, to `CCOc1ccc(-c2nc(CCC(=O)c3cc(OC)ccc3OC)cs2)cc1OCC` [Example 95] belongs 97.8 to 98.5 °C.
On to `CCOc1ccc(-c2nc(CCC(O)c3ncccc3OC)cs2)cc1OCC` (centres unmarked) [Example 187, 3-[2-(3,4-diethoxyphenyl)thiazole-4-yl]-1-(3-methoxypyridine-2-yl)-1-propanol dihydrochloride], for which, on human PDE4D (HPDE4D), the IC50 turned out to be 6.6 nM.
`CCOc1ccc(-c2nc(CCC(=O)c3ccccc3Cl)cs2)cc1OCC` [Example 104]: the melting point was 64.4 to 65.1 °C.
Take `COc1ccc(-c2nc(/C=C/C(=O)c3cc(O)cc(O)c3)cs2)cc1OC` (as salt: hydrochloride) [Example 6]: the melting point was 164 to 168 °C.
On the same count and under the same terms, next, `CCOc1ccc(-c2nc(/C=C/C(=O)c3ccc(F)cc3)cs2)cc1OCC` [Example 25]: 116 to 121 °C; `CCOc1ccc(-c2nc(CCC(=O)c3ccccc3Br)cs2)cc1OCC` [Example 103]: 66.1 to 67.9 °C; `CCOc1ccc(CC(=O)Cc2csc(-c3ccc(OC)c(OC)c3)n2)cc1OCC` [Example 243, 3-[2-(3,4-dimethoxyphenyl)thiazole-4-yl]-1-(3,4-diethoxyphenyl)propanone]: 141.3 to 142.4 °C.
The same measure, in the same setting: to `CCOc1ccc(-c2nc(/C=C/C(=O)c3cccc(O)c3)cs2)cc1OCC` [Example 16] belongs 144.5 to 146 °C.
`CCOc1ccc(-c2nc(CCC(=O)c3ccccc3C(F)(F)F)cs2)cc1OCC` [Example 99] displayed a melting point of 91.7 to 93 °C. Besides, at human PDE4D (HPDE4D), the IC50 stood at 29 nM.
On to `CCOc1ccc(-c2nc(/C=C/C(=O)c3ccc(C)cc3)cs2)cc1OCC` [Example 26], for which the melting point was in the range of 124 to 125.5 °C.
Still for that read-out and setting: next, `CCOc1ccc(C(=O)/C=C/c2csc(-c3ccc(OCC)c(OCC)c3)n2)cc1` [Example 31]: 130 to 135 °C; `CCOc1ccc(-c2nc(/C=C/C(=O)c3ccc(O)c(C(=O)OC)c3)cs2)cc1OCC` [Example 20]: 161.3 to 162.8 °C; `CCOc1ccc(-c2nc(/C=C/C(=O)c3ccccc3)cs2)cc1OCC` [Example 14]: 129 to 130 °C.
In the case of `COc1ccc(-c2nc(/C=C/C(=O)c3ccc(O)c(O)c3)cs2)cc1OC` (as salt: hydrochloride) [Example 7], the melting point was in the range of 162 to 165 °C.
`CCOc1ccc(-c2nc(CCC(=O)c3ncccc3OC)cs2)cc1OCC` [Example 88, 3-[2-(3,4-diethoxyphenyl)thiazole-4-yl]-1-(3-methoxypyridine-2-yl)-1-propanone] came in with a melting point of 79.2 to 79.7 °C. The compound further yielded an IC50 against human PDE4D (HPDE4D) of 0.4 nM.
The matching figures for `CCOc1ccc(-c2nc(CCC(=O)c3ccc(Cl)cc3OC)cs2)cc1OCC` [Example 106]: 102.8 to 104.2 °C and 5.7 nM.
